The text below walks through data of ChEMBL document CHEMBL4425128, “Functional Characterization of Cholera Toxin Inhibitors Using Human Intestinal Organoids” (J Med Chem, 2016).

A short description of test [1]: Inhibition of cholera toxin in human intestinal organoids assessed as reduction in oganoids swelling using cholera toxin pre-incubated with compound for 4 hrs before organoid stimulation with cholera toxin by calcein AM staining based confocal microscopy. As to conditions: Vibrio cholerae, Intestine.
Test [2] has as its target Cystic fibrosis transmembrane conductance regulator (Homo sapiens) (UniProt P13569). The test is described as follows: Inhibition of CFTR in human intestinal organoids assessed as reduction in forskolin-induced oganoids swelling incubated for 4 hrs with cholera toxin followed by subsequent stimulation with 0.1 uM forskolin by calcein AM staining based confocal microscopy. To be noted: Intestine.

Test [3] is described as follows: Inhibition of HRP-tagged Vibrio cholerae cholera enterotoxin subunit B5 binding to GM1 coated plates using GM1os-beta-NAc-propargyl.

Structures are written as SMILES. Activity calls are given as the source filed them. No cut-off for these calls is given here.

Cystic fibrosis transmembrane conductance regulator (Homo sapiens), sequence (P13569 whole entry, looked up): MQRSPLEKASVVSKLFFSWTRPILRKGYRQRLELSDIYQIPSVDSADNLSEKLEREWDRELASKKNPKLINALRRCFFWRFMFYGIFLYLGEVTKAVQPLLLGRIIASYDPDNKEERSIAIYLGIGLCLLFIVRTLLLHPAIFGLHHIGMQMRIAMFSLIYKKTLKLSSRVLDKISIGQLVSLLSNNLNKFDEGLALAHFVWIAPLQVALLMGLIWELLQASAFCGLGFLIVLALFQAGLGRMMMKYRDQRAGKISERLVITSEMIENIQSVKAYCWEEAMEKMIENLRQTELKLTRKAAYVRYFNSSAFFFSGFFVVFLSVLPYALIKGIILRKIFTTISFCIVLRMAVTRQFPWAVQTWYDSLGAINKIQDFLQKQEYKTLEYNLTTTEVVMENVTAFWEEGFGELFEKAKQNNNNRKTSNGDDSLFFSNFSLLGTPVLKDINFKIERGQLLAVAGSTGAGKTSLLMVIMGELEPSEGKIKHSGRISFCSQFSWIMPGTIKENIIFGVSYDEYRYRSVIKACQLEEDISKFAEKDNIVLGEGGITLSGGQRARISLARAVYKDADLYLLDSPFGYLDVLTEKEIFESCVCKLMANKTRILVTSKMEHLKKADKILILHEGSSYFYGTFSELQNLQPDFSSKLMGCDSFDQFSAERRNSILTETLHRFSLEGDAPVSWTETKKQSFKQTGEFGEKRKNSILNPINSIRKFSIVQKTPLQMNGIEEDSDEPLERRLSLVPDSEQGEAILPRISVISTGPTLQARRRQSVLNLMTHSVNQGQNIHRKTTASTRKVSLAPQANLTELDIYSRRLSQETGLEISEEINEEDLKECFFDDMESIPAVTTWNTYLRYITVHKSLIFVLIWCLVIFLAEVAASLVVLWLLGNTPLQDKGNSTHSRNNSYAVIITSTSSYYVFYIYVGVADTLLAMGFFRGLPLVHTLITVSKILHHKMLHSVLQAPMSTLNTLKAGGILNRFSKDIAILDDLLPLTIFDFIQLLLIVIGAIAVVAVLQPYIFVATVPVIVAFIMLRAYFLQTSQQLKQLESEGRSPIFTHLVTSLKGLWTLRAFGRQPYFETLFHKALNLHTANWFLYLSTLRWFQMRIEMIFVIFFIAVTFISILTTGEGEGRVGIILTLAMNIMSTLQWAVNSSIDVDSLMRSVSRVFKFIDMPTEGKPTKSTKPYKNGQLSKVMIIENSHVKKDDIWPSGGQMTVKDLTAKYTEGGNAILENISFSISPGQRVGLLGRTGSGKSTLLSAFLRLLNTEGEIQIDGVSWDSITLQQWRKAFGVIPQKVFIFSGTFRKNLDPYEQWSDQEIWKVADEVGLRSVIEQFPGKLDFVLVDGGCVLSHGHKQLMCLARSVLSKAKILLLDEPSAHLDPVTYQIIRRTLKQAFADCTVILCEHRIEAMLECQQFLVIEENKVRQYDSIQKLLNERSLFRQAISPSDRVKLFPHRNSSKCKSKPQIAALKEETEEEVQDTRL

As usually defined, the IC50 is the concentration that inhibits the measured activity by half. On to `CC(=O)N[C@H]1[C@H](O[C@@H]2[C@H](O[C@]3(C(=O)O)C[C@H](O)[C@@H](NC(C)=O)[C@H]([C@H](O)[C@H](O)CO)O3)[C@@H](O)[C@H](O[C@H]3[C@H](O)[C@@H](O)[C@H](N(Cc4cn(CCOCCOCCOCCO)nn4)C(C)=O)O[C@@H]3CO)O[C@@H]2CO)O[C@H](CO)[C@H](O)[C@@H]1O[C@@H]1O[C@H](CO)[C@H](O)[C@H](O)[C@H]1O`, for which the IC50 in test [1] was 0.424 µM; in test [3] it was 0.11 µM. Moreover, in test [2], the inhibition entry is “inactive”.

In the case of `O=C[C@H](O)[C@@H](O)[C@@H](O)[C@H](O)CO` [GALACTOSE], the IC50 in test [1] was 9100 µM. Also, in test [2], the inhibition entry was “inactive”.

Consider `CC(=O)N[C@H]1[C@H](O[C@@H]2[C@H](O[C@]3(C(=O)O)C[C@H](O)[C@@H](NC(C)=O)[C@H]([C@H](O)[C@H](O)CO)O3)[C@@H](O)[C@H](O[C@H]3[C@H](O)[C@@H](O)[C@H](N(Cc4cn([C@@H]5[C@@H](OC(C)=O)O[C@@H](n6cc(CN(C(C)=O)[C@@H]7O[C@H](CO)[C@@H](O[C@@H]8O[C@H](CO)[C@H](O[C@@H]9O[C@H](CO)[C@H](O)[C@H](O[C@@H]%10O[C@H](CO)[C@H](O)[C@H](O)[C@H]%10O)[C@H]9NC(C)=O)[C@H](O[C@]9(C(=O)O)C[C@H](O)[C@@H](NC(C)=O)[C@H]([C@H](O)[C@H](O)CO)O9)[C@H]8O)[C@H](O)[C@H]7O)nn6)[C@H](OC(C)=O)[C@H]5OC(C)=O)nn4)C(C)=O)O[C@@H]3CO)O[C@@H]2CO)O[C@H](CO)[C@H](O)[C@@H]1O[C@@H]1O[C@H](CO)[C@H](O)[C@H](O)[C@H]1O`, for which the values for the half-inhibitory concentration (IC50) in test [1] and in test [3] were 0.018 µM and 0.008 µM, respectively. In test [2], the inhibition entry was “inactive”.
